This note sets out measurements from paper PMC10439952, “JT002, a small molecule inhibitor of the NLRP3 inflammasome for the treatment of autoinflammatory disorders” (Scientific Reports, 2023).

As usually defined, the IC50 is the concentration needed to halve the response being measured. The term AUC denotes the area under the concentration-time curve, a measure of exposure. A higher AUC goes with high exposure. The half-life is how long it takes for the measured level to halve. As usually defined, the Tmax is the time from dosing to the highest level. The term bioavailability denotes dose-corrected exposure relative to a reference, in per cent.

Molecules are shown by their SMILES. Like-named read-outs stand apart in the source and are kept apart here.

For series [1], the target named is T1, NLRP3 inflammasome (Mus musculus, UniProt Q8R4B8). The series can be described thus: Inhibition of IL-1β production in mouse BMDMs stimulated by LPS + monosodium urate crystals. The class given is cell-based. The arrangement: host or cells: mouse PBMCs; mouse bone-marrow derived macrophages; mouse whole blood (C57BL/6 in the ex vivo study). The conditions noted are these: Mouse BMDM, read-out: Geo Av IC50, IL-1β. Here is the method: (§1) Inflammasome activation and whole blood assays were essentially carried out as described earlier. Details can be found in the supplementary information section accompanying this publication. A protocol for blood draws from healthy volunteers and use of the blood in preclinical assays was approved by Western Institutional Review Board, Inc (Puyallup, WA, USA). Informed consent was obtained from each donor prior to the first blood draw.
T1 sequence (Q8R4B8 whole entry): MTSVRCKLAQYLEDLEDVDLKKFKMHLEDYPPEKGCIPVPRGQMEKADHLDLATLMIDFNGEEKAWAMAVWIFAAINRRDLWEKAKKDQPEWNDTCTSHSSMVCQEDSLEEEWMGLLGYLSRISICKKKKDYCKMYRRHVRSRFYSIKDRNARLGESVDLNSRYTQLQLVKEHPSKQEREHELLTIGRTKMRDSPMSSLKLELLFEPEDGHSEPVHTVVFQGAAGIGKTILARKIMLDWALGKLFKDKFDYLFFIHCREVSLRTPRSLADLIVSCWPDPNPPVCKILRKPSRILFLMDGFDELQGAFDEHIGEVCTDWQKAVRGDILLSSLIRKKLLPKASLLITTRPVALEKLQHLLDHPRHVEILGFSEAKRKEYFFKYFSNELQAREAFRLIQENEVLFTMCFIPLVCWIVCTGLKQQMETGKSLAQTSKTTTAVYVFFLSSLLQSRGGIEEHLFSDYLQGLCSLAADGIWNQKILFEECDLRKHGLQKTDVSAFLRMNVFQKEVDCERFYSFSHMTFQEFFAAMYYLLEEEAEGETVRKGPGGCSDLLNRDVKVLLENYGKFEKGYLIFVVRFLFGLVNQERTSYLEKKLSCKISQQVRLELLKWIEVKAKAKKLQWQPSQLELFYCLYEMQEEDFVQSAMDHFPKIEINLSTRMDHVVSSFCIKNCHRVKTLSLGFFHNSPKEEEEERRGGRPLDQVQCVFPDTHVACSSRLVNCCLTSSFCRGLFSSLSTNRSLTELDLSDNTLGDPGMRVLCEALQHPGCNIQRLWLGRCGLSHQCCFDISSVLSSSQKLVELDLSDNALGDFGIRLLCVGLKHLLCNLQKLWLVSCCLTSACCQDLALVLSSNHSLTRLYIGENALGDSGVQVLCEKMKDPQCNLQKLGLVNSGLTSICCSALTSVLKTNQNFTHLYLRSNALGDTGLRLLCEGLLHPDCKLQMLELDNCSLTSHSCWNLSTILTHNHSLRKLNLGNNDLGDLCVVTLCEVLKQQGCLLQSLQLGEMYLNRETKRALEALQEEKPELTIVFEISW
(§2) Cell viability was determined by addition of an equal volume of CellTiter-Glo® 2.0 reagent (Promega) to the remaining cells/supernatant in each well. Intracellular Caspase-1 activity was measured using the Caspase-Glo® assay (Promega) according to the manufacturer’s instructions. The biochemical capsase-1 assay was conducted at Reaction Biology Corporation (Malvern, USA). Human IL-1β, IL-1α, and TNFα and mouse IL-1β were measured in cell culture supernatants using homogeneous time resolved fluorescence assay kits (HTRF, Cisbio, Codolet, France). Human IL-18 was measured in cell culture supernatants using an ELISA kit (R&D Systems, Minneapolis, MN, USA). Plasma IL-1β concentrations were determined by Quantikine® ELISA (R&D Systems, Minneapolis, MN).
(§3) 4H). MS: m/z 433.1 (M+H+). […]

Series [2] can be described thus: Pharmacokinetics in male Beagle dogs after i.v. and p.o. administration. The series is classed as in vivo. The following applies: plasma, Dog. The method, then: The pharmacokinetics (PK) of JT002 were assessed in male Sprague–Dawley rats and male Beagle dogs after intravenous (i.v.) and oral (p.o.) administration (Table 2). […] In dogs, a maximum drug plasma concentration (Cmax) of 4.0 µg/mL (9 µM) was reached 1 h after a single 1 mg oral dose. Dose-adjusted exposures (dose-adjusted AUC) from oral administration were close to identical between rat and dog (11.8 versus 11.6) (Table 2).

Series [3] addresses T1, NLRP3 inflammasome. Put plainly: Inhibition of non-canonical NLRP3 pathway IL-1β production in mouse BMDMs (Pam3CSK4 + transfected LPS). On the set-up: host or cells: mouse PBMCs; mouse bone-marrow derived macrophages; mouse whole blood (C57BL/6 in the ex vivo study). The following applies: Mouse BMDM, read-out: Geo Av IC50, IL-1β. The series is classed as cell-based. The method, then:
as §1, §2, §3

In series [4] the test system is NLRP1 inflammasome. The series can be described thus: IL-1β production in Nlrp3-/- mouse BMDMs after NLRP1 activation (LPS + L18-MDP). The class given is cell-based. The conditions noted are these: mBMDMs, concentrations up to 10 µM.
Series [5] relates to TNFα production. The series can be described thus: TNFα production in human PBMCs stimulated by LPS + ATP. The class given is cell-based. The conditions noted are these: Human PBMC. The method, then: as §1, §2, §3
In series [6] the target is T1, NLRP3 inflammasome. Put plainly: Inhibition of IL-1β production in mouse BMDMs stimulated by LPS + ATP. The series is classed as cell-based. On the set-up: host or cells: mouse PBMCs; mouse bone-marrow derived macrophages; mouse whole blood (C57BL/6 in the ex vivo study). The following applies: Mouse BMDM, read-out: Geo Av IC50, IL-1β. Here is the method:
as §1, §2, §3

With `CO[C@@H]1COc2c(S(=O)(=O)NC(=O)Nc3c4c(cc5c3CCC5)CCC4)cnn2C1` [JT002], the concentration for half-maximal inhibition (IC50) in series [1] is 3 nM; in series [3], 30 nM; in series [5] (read-out: Geo Av IC50, TNFα), over 1000 nM; in series [6], 5 nM. Besides, the Cmax came out at 9 µM in series [2] (single 1 mg oral dose, read-out: maximum drug plasma concentration (Cmax)); 7000 ng/mL in series [2] (iv, i.v., 1 mg/kg, read-out: Cmax); 4000 ng/mL in series [2] (po, p.o., 1 mg/kg, read-out: Cmax). Besides, the AUC in series [2] (iv, 1 mg/kg) worked out at 10600 ng·h/mL; in series [2] (po, 1 mg/kg), 11600 ng·h/mL. Moreover, the half-life was 1.1 h in series [2] (iv, 1 mg/kg) and 1.4 h in series [2] (po, 1 mg/kg). In series [2] (iv, i.v., 1 mg/kg, read-out: Clpl (plasma clearance)), the clearance came to 1.8 mL/min/kg. For the same compound, the Vd in series [2] (iv, i.v., 1 mg/kg, read-out: Vss) is 0.2 L/kg. Further, the Tmax in series [2] (po, 1 mg/kg, median) came to 1 h. Further, the bioavailability in series [2] (po, p.o., 1 mg/kg, sodium salt form, read-out: %F (oral bioavailability)) is 100%. The “inhibition of IL-1β production after NLRP1 activation” value in series [4] was “no inhibition of IL-1β production”. In addition, the “effect on TNFα production” value in series [5] (JT002 concentrations up to 1 µM) is “no effect”.
